Experimental data: US6737383B1, “Herbicidal oxadiazolidines” (priority 1999, dated 2004)

Tests used:
velvetleaf = assay: Test B pre/postemergence velvetleaf; assay type: in vivo, Abutilon theophrasti; settings: for Velvetleaf plant response rating: scale of 0 to 10 where 0 is no effect and 10 is complete control
Summary of the method: (§1)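 Test chemicals in a non-phytotoxic solvent mixture with surfactant were sprayed preemergence onto planted seeds and postemergence onto plants 2 to 18 cm tall (1- to 4-leaf stage). After twelve to sixteen days in a greenhouse, injury was visually rated against untreated controls from 0 (no effect) to 10 (complete control).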

crabgrass = assay: Test B pre/postemergence crabgrass; assay type: in vivo, Digitaria sanguinalis; settings: for Crabgrass plant response rating: scale of 0 to 10 where 0 is no effect and 10 is complete control
Summary of the method: as §1

giant foxtail = assay: Test B pre/postemergence giant foxtail; assay type: in vivo, Setaria faberii; settings: for Giant foxtail plant response rating: scale of 0 to 10 where 0 is no effect and 10 is complete control
Summary of the method: as §1

bedstraw = assay: Test B pre/postemergence bedstraw; assay type: in vivo, Galium aparine; settings: Preemergence; for Bedstraw plant response rating: scale of 0 to 10 where 0 is no effect and 10 is complete control
Summary of the method: as §1

rice = assay: Test B flood test rice; assay type: in vivo, Oryza sativa
Summary of the method: (§2)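 Plants were grown to the 2-leaf stage before treatment with test chemical, then held in a greenhouse for twelve to sixteen days. Injury was visually rated against untreated controls on a 0–10 scale, where 0 is no effect and 10 is complete control.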

blackgrass = assay: Test B pre/postemergence blackgrass; assay type: in vivo, Alopecurus myosuroides; settings: for Blackgrass plant response rating: scale of 0 to 10 where 0 is no effect and 10 is complete control
Summary of the method: as §1

wheat = assay: Test B pre/postemergence wheat; assay type: in vivo, Triticum aestivum; settings: for Wheat plant response rating: scale of 0 to 10 where 0 is no effect and 10 is complete control
Summary of the method: as §1

purple nutsedge = assay: Test B pre/postemergence purple nutsedge; assay type: in vivo, Cyperus rotundus; settings: for Nutsedge plant response rating: scale of 0 to 10 where 0 is no effect and 10 is complete control
Summary of the method: as §1

pigweed = assay: Test B pre/postemergence pigweed; assay type: in vivo, Amaranthus retroflexus; settings: for Redroot pigweed plant response rating: scale of 0 to 10 where 0 is no effect and 10 is complete control
Summary of the method: as §1

sugar beet = assay: Test B pre/postemergence sugar beet; assay type: in vivo, Beta vulgaris; settings: for Sugarbeets plant response rating: scale of 0 to 10 where 0 is no effect and 10 is complete control
Summary of the method: as §1

bamyardgrass = assay: Test B flood test barnyardgrass; assay type: in vivo, Echinochloa crus-galli
Summary of the method: as §2

cocklebur = assay: Test B pre/postemergence cocklebur; assay type: in vivo, Xanthium strumarium; settings: for Cocklebur plant response rating: scale of 0 to 10 where 0 is no effect and 10 is complete control
Summary of the method: as §1

morningglory = assay: Test B pre/postemergence morningglory; assay type: in vivo, Ipomoea hederacea; settings: for Morningglory plant response rating: scale of 0 to 10 where 0 is no effect and 10 is complete control
Summary of the method: as §1

wild oat = assay: Test B pre/postemergence wild oat; assay type: in vivo, Avena fatua; settings: for Wild oats plant response rating: scale of 0 to 10 where 0 is no effect and 10 is complete control
Summary of the method: as §1

duck salad = assay: Test B flood test duck salad; assay type: in vivo, Heteranthera limosa
Summary of the method: as §2

surinam grass = assay: Test B pre/postemergence surinam grass; assay type: in vivo, Brachiaria decumbens; settings: for B. signalgrass plant response rating: scale of 0 to 10 where 0 is no effect and 10 is complete control
Summary of the method: as §1

[1] = Postemergence, Rate 125 g/ha, scale 0 to 10, 0 is no effect, 10 is complete control
[2] = Postemergence, Rate 250 g/ha, scale 0 to 10, 0 is no effect, 10 is complete control
[3] = Preemergence, Rate 62 g/ha, scale 0 to 10 (0 no effect, 10 complete control)
[4] = Rate 500 g/ha, Postemergence, scale 0 to 10, 0 no effect, 10 complete control
[5] = Rate 62 g/ha, flood test species, Pre-emergence, visual evaluation after twelve to sixteen days
[6] = Rate 125 g/ha, under heading Pre-emergence, flood test species, visual evaluation after twelve to sixteen days
[7] = Rate 250 g/ha, Pre-emergence, flood-test species, scale 0 to 10, 0 is no effect, 10 is complete control
[8] = Rate 500 g/ha, Pre-emergence, flood test species, scale 0 to 10 (0 no effect, 10 complete control)

## CC(C)N(C(=O)n1oc(=O)n(CC2CCOC2)c1=O)c1ccc(F)cc1 (stereo not shown) [Compound 375]
velvetleaf; [1]
  Plant response rating, Velvetleaf: 0
velvetleaf; [2]
  Plant response rating, Velvetleaf: 2
velvetleaf; [3]
  Plant response rating, Velvetleaf: 0
velvetleaf; Preemergence, Rate 125 g/ha
  Velvetleaf plant response rating (0 to 10 scale): 3
velvetleaf; Preemergence, Rate 250 g/ha
  Velvetleaf plant response rating: 4
velvetleaf; Preemergence, Rate 500 g/ha
  Velvetleaf plant response rating: 7
velvetleaf; Rate 62 g/ha, Postemergence
  Velvetleaf plant response rating: 0
velvetleaf; [4]
  Plant response rating, Velvetleaf: 4
crabgrass; [1]
  Plant response rating, Crabgrass: 4
crabgrass; [2]
  Plant response rating, Crabgrass: 7
crabgrass; [3]
  Plant response rating, Crabgrass: 7
crabgrass; Preemergence, Rate 125 g/ha
  Crabgrass plant response rating (0 to 10 scale): 8
crabgrass; Preemergence, Rate 250 g/ha
  Crabgrass plant response rating: 10
crabgrass; Preemergence, Rate 500 g/ha
  Crabgrass plant response rating: 10
crabgrass; Rate 62 g/ha, Postemergence
  Crabgrass plant response rating: 0
crabgrass; [4]
  Plant response rating, Crabgrass: 9
Giant foxtail; [1]
  Plant response rating, Giant foxtail: 6
Giant foxtail; [2]
  Plant response rating, Giant foxtail: 8
Giant foxtail; [3]
  Plant response rating, Giant foxtail: 10
Giant foxtail; Preemergence, Rate 125 g/ha
  Giant foxtail plant response rating (0 to 10 scale): 10
Giant foxtail; Preemergence, Rate 250 g/ha
  Giant foxtail plant response rating: 10
Giant foxtail; Preemergence, Rate 500 g/ha
  Giant foxtail plant response rating: 10
Giant foxtail; Rate 62 g/ha, Postemergence
  Giant foxtail plant response rating: 0
Giant foxtail; [4]
  Plant response rating, Giant foxtail: 9
bedstraw; Rate 62 g/ha, scale 0 to 10 (0 no effect, 10 complete control)
  Plant response rating, Bedstraw: 6
bedstraw; Rate 125 g/ha
  Bedstraw plant response rating (0 to 10 scale): 10
bedstraw; Rate 250 g/ha
  Bedstraw plant response rating: 10
bedstraw; Rate 500 g/ha
  Bedstraw plant response rating: 10
rice; [5]
  Plant response rating, Rice (0 to 10 scale, 0 is no effect, 10 is complete control): 0
rice; [6]
  Rice plant response rating (0 to 10 scale, 0 is no effect, 10 is complete control): 0
rice; [7]
  Rice plant response rating: 0
rice; [8]
  Rice plant response rating: 0
blackgrass; [1]
  Plant response rating, Blackgrass: 5
blackgrass; [2]
  Plant response rating, Blackgrass: 5
blackgrass; [3]
  Plant response rating, Blackgrass: 3
blackgrass; Preemergence, Rate 125 g/ha
  Blackgrass plant response rating (0 to 10 scale): 5
blackgrass; Preemergence, Rate 250 g/ha
  Blackgrass plant response rating: 9
blackgrass; Preemergence, Rate 500 g/ha
  Blackgrass plant response rating: 10
blackgrass; Rate 62 g/ha, Postemergence
  Blackgrass plant response rating: 2
blackgrass; [4]
  Plant response rating, Blackgrass: 8
wheat; [1]
  Plant response rating, Wheat: 0
wheat; [2]
  Plant response rating, Wheat: 2
wheat; [3]
  Plant response rating, Wheat: 0
wheat; Preemergence, Rate 125 g/ha
  Wheat plant response rating (0 to 10 scale): 0
wheat; Preemergence, Rate 250 g/ha
  Wheat plant response rating: 2
wheat; Preemergence, Rate 500 g/ha
  Wheat plant response rating: 3
wheat; Rate 62 g/ha, Postemergence
  Wheat plant response rating: 0
wheat; [4]
  Plant response rating, Wheat: 6
Purple nutsedge; [1]
  Plant response rating, Nutsedge: 0
Purple nutsedge; [2]
  Plant response rating, Nutsedge: 0
Purple nutsedge; [3]
  Plant response rating, Nutsedge: 0
Purple nutsedge; Preemergence, Rate 125 g/ha
  Nutsedge plant response rating (0 to 10 scale): 0
Purple nutsedge; Preemergence, Rate 250 g/ha
  Nutsedge plant response rating: 0
Purple nutsedge; Preemergence, Rate 500 g/ha
  Nutsedge plant response rating: 0
Purple nutsedge; Rate 62 g/ha, Postemergence
  Nutsedge plant response rating: 0
Purple nutsedge; [4]
  Plant response rating, Nutsedge: 6
pigweed; [1]
  Plant response rating, Redroot pigweed: 0
pigweed; [2]
  Plant response rating, Redroot pigweed: 0
pigweed; [3]
  Plant response rating, Redroot pigweed: 10
pigweed; Preemergence, Rate 125 g/ha
  Redroot pigweed plant response rating (0 to 10 scale): 10
pigweed; Preemergence, Rate 250 g/ha
  Redroot pigweed plant response rating: 10
pigweed; Preemergence, Rate 500 g/ha
  Redroot pigweed plant response rating: 10
pigweed; Rate 62 g/ha, Postemergence
  Redroot pigweed plant response rating: 0
pigweed; [4]
  Plant response rating, Redroot pigweed: 3
Sugar beet; [1]
  Plant response rating, Sugarbeets: 0
Sugar beet; [2]
  Plant response rating, Sugarbeets: 0
Sugar beet; [3]
  Plant response rating, Sugarbeets: 0
Sugar beet; Preemergence, Rate 125 g/ha
  Sugarbeets plant response rating (0 to 10 scale): 2
Sugar beet; Preemergence, Rate 250 g/ha
  Sugarbeets plant response rating: 4
Sugar beet; Preemergence, Rate 500 g/ha
  Sugarbeets plant response rating: 7
Sugar beet; Rate 62 g/ha, Postemergence
  Sugarbeets plant response rating: 0
Sugar beet; [4]
  Plant response rating, Sugarbeets: 3
bamyardgrass; [5]
  Plant response rating, Barnyardgrass (0 to 10 scale, 0 is no effect, 10 is complete control): 0
bamyardgrass; [6]
  Barnyardgrass plant response rating (0 to 10 scale, 0 is no effect, 10 is complete control): 0
bamyardgrass; [7]
  Barnyardgrass plant response rating: 0
bamyardgrass; [8]
  Barnyardgrass plant response rating: 0
cocklebur; [1]
  Plant response rating, Cocklebur: 0
cocklebur; [2]
  Plant response rating, Cocklebur: 0
cocklebur; [3]
  Plant response rating, Cocklebur: 0
cocklebur; Preemergence, Rate 125 g/ha
  Cocklebur plant response rating (0 to 10 scale): 0
cocklebur; Preemergence, Rate 250 g/ha
  Cocklebur plant response rating: 0
cocklebur; Preemergence, Rate 500 g/ha
  Cocklebur plant response rating: 0
cocklebur; Rate 62 g/ha, Postemergence
  Cocklebur plant response rating: 0
cocklebur; [4]
  Plant response rating, Cocklebur: 0
morningglory; [1]
  Plant response rating, Morningglory: 1
morningglory; [2]
  Plant response rating, Morningglory: 5
morningglory; [3]
  Plant response rating, Morningglory: 0
morningglory; Preemergence, Rate 125 g/ha
  Morningglory plant response rating (0 to 10 scale): 0
morningglory; Preemergence, Rate 250 g/ha
  Morningglory plant response rating: 0
morningglory; Preemergence, Rate 500 g/ha
  Morningglory plant response rating: 0
morningglory; Rate 62 g/ha, Postemergence
  Morningglory plant response rating: 1
morningglory; [4]
  Plant response rating, Morningglory: 6
Wild oat; [1]
  Plant response rating, Wild oats: 0
Wild oat; [2]
  Plant response rating, Wild oats: 6
Wild oat; [3]
  Plant response rating, Wild oats: 0
Wild oat; Preemergence, Rate 125 g/ha
  Wild oats plant response rating (0 to 10 scale): 4
Wild oat; Preemergence, Rate 250 g/ha
  Wild oats plant response rating: 9
Wild oat; Preemergence, Rate 500 g/ha
  Wild oats plant response rating: 9
Wild oat; Rate 62 g/ha, Postemergence
  Wild oats plant response rating: 0
Wild oat; [4]
  Plant response rating, Wild oats: 8
Duck salad; [5]
  Plant response rating, Ducksalad (0 to 10 scale, 0 is no effect, 10 is complete control): 0
Duck salad; [6]
  Ducksalad plant response rating (0 to 10 scale, 0 is no effect, 10 is complete control): 0
Duck salad; [7]
  Ducksalad plant response rating: 0
Duck salad; [8]
  Ducksalad plant response rating: 0
Surinam grass; [1]
  Plant response rating, B. signalgrass: 0
Surinam grass; [2]
  Plant response rating, B. signalgrass: 2
Surinam grass; [3]
  Plant response rating, B. signalgrass: 0
Surinam grass; Preemergence, Rate 125 g/ha
  B. signalgrass plant response rating (0 to 10 scale, 0 is no effect, 10 is complete control): 0
Surinam grass; Preemergence, Rate 250 g/ha
  B. signalgrass plant response rating: 4
Surinam grass; Preemergence, Rate 500 g/ha
  B. signalgrass plant response rating: 8
Surinam grass; Rate 62 g/ha, Postemergence
  B. signalgrass plant response rating: 0
Surinam grass; [4]
  Plant response rating, B. signalgrass: 8
